Test results reported in patent US20240050442A1, “TRIMEPRAZINE DERIVATIVES AND COMPOSITIONS COMPRISING THE SAME FOR TREATING A NEUROPSYCHIATRIC DISORDER” (CENTRE NATIONAL DE LA RECHERCHE SCIENTIFIQUE, priority 2020, published 2024).

Columns and labels:
Type in all cases: in vivo
[1] = tested on: Fmr1-KO mice; test: Social interaction test; settings: 28-30 post-natal days, 0.25 mg/kg BW intraperitoneal
Description: The experiments were performed following the ARRIVE (Animals in Research: Reporting In Vivo Experiments) guidelines. Fmr1-knockout (KO) and WT mice on a C57BL/6J congenic background were obtained from Prof. R. Willemsen. All animals were generated and housed in groups of 4 in standard laboratory conditions (22° C., 55±10% humidity, 12-h light/12-h dark diurnal cycles) with food and water provided ad libitum. Experimental testing was performed between 12:00 and 16:30 each day during the 12-h light period. Only male mice and rats were used. Animal care was conducted in accordance with the European Community Directive 2010/63/EU. The experiments were approved by the local ethics committee (Comité d'Ethique en Expérimentation Animale, by the French Ministry of Research. Trimeprazine and opipramol were purchased from Prestwich Library. Both molecules were diluted in DMSO at the stock concentration of 100 mM. All compounds injected intraperitoneally were administered in a volume of 1.5 ml per kg body weight at the amount indicated in the legends of each figure. Social Interaction Test: The 28-30-day-old mice were individually habituated to the experimental apparatus (a Plexiglas cage measuring 30×30×30 cm) for 5 min the day before testing. On the test day, the animals were isolated for 2 h before testing, to enhance their social motivation and thus facilitate the expression of social interaction during testing. The test consisted of placing 2 animals (same treatment and weight) into the test cage for 10 min. The behaviour of the animals was recorded using a video camera with zoom lens, DVD recorder and LCD monitor. Behaviour was assessed per single animal and analyzed by a trained observer who was unaware of genotype and treatment conditions using the Observer XT software (Noldus, The Netherlands). The following parameters were scored: a. Social Activities: • 1. Social sniffing: sniffing any part of the body of the partner, including the anogenital area. • 2. Following: moving in the direction of or pursuing the partner, who moves away. • 3. Mutual circle: partners are mutually sniffing each other's anogenital region, while describing tight circles with their reciprocal following movements. • 4. Pushing past: the focal animal passes between the wall of the cage and the body of the partner by pushing its own body through the narrow space available. • 5. Crawling under/over: the focal animal crawls underneath or over the partner's body, crossing it transversely from one side to the other. • 6. Social grooming: chewing and licking the fur of the partner. • 7. Social rest: the focal animal is being groomed by the partner. • 8. […] The average frequency of total social activities, quantified as number of events during the 10 min testing session, was graphed.

[2] = tested on: Fmr1-KO mice; test: Novel object recognition test (working memory)
Description: The experiments were performed following the ARRIVE (Animals in Research: Reporting In Vivo Experiments) guidelines. Fmr1-knockout (KO) and WT mice on a C57BL/6J congenic background were obtained from Prof. R. Willemsen. All animals were generated and housed in groups of 4 in standard laboratory conditions (22° C., 55±10% humidity, 12-h light/12-h dark diurnal cycles) with food and water provided ad libitum. Experimental testing was performed between 12:00 and 16:30 each day during the 12-h light period. Only male mice and rats were used. Animal care was conducted in accordance with the European Community Directive 2010/63/EU. The experiments were approved by the local ethics committee (Comité d′Ethique en Expérimentation Animale, by the French Ministry of Research. Trimeprazine and opipramol were purchased from Prestwich Library. Both molecules were diluted in DMSO at the stock concentration of 100 mM. All compounds injected intraperitoneally were administered in a volume of 1.5 ml per kg body weight at the amount indicated in the legends of each figure. On day 1 and 2, mice were habituated for 10 min to the maze in which the task was performed. On the third day, mice were put back in the maze for 10 min, two identical objects were presented and the time that the mice spent exploring each object was recorded. The mice were again placed in the maze 5 minutes later for 10 min, one of the familiar objects was replaced with a novel object and the total time spent exploring each of the two objects (novel and familiar) was computed. Object exploration was defined as the orientation of the nose to the object at a distance of less than 2 cm. A discrimination index was calculated as the difference between the times spent exploring either the novel or familiar object divided by the total time exploring the two objects. A higher discrimination index is considered to reflect greater memory retention for the familiar object. Pharmacological treatment with SM2 and SM4 was performed 30 minutes before training.

[3] = tested on: Fmr1-KO mice; test: Homing behaviour test (social discrimination, cognition); settings: 13 post-natal days; for latency time (homing test): 0.175 mg/kg BW intraperitoneal, FIG. 2A
Description: The experiments were performed following the ARRIVE (Animals in Research: Reporting In Vivo Experiments) guidelines. Fmr1-knockout (KO) and WT mice on a C57BL/6J congenic background were obtained from Prof. R. Willemsen. All animals were generated and housed in groups of 4 in standard laboratory conditions (22° C., 55±10% humidity, 12-h light/12-h dark diurnal cycles) with food and water provided ad libitum. Experimental testing was performed between 12:00 and 16:30 each day during the 12-h light period. Only male mice and rats were used. Animal care was conducted in accordance with the European Community Directive 2010/63/EU. The experiments were approved by the local ethics committee (Comité d′Ethique en Expérimentation Animale, by the French Ministry of Research. Trimeprazine and opipramol were purchased from Prestwich Library. Both molecules were diluted in DMSO at the stock concentration of 100 mM. All compounds injected intraperitoneally were administered in a volume of 1.5 ml per kg body weight at the amount indicated in the legends of each figure. Homing Behaviour Test: At PND 13, the litter was separated from the dam and kept for 30 min in a temperature-controlled holding cage. Then, each mouse pup was placed into a Plexiglas box whose floor was covered for ⅓ with bedding from the pup's home cage and for ⅔ with clean bedding. The pup was located at the side of the box covered by clean bedding, and its behaviour was videorecorded for 4 min for subsequent analysis. The following parameters were scored using the Observer 3.0 software (Noldus Information Technology): latency (s) to reach the home-cage bedding area; total time (s) spent by the pup in the nest bedding area.

[4] = Fmr1-KO adolescent mice, acute treatment

Row | Compound | number of social interactions [1, 4] | number of social interactions ([1]; WT adolescent mice) | discrimination index ([2]; Fmr1-KO adult mice 8 weeks, 0.18 mg/kg BW intraperitoneal 30 minutes before training, FIG. 3B) | discrimination index ([2]; WT adult mice 8 weeks, 0.18 mg/kg BW intraperitoneal 30 minutes before training, FIG. 3B) | latency time (homing test) ([3]; Fmr1-KO infant mice) | latency time (homing test) ([3]; WT infant mice) | discrimination index ([2]; Fmr1-KO adult mice 8 weeks, 0.3 mg/kg BW intraperitoneal 30 minutes before training, FIG. 3A) | discrimination index ([2]; WT adult mice 8 weeks, 0.3 mg/kg BW intraperitoneal 30 minutes before training, FIG. 3A) | latency time (time the mouse pups need to find the mother's litter) ([3]; Fmr1-KO infant mice, 0.25 mg/kg BW intraperitoneal, FIG. 1A)
1 | OCCN1CCN(CCCN2c3ccccc3C=Cc3ccccc32)CC1 [SM2, opipramol] | does not have a beneficial impact | has a negative impact | not normalized | worsened the behaviour | does not have a beneficial impact | has a negative impact |  |  | 
2 | CC(CN(C)C)CN1c2ccccc2Sc2ccccc21 (centres unmarked) [SM4, Trimeprazine] | normalized | does not modify the social interaction behaviour |  |  |  |  | Discrimination index is the same in treated WT and Fmr-KO mice | has no impact on the behaviour | normalized
